Our source for the EC50 values is BindingDB's records for doi:10.1016/j.bmc.2008.10.023 (Polymer Functionalization Group (Ictp, Csic), 2008).

Where only a bound is given, the exact number is not on record here.

Chain of Peroxisome proliferator-activated receptor alpha (Homo sapiens) (Q07869 whole entry, looked up): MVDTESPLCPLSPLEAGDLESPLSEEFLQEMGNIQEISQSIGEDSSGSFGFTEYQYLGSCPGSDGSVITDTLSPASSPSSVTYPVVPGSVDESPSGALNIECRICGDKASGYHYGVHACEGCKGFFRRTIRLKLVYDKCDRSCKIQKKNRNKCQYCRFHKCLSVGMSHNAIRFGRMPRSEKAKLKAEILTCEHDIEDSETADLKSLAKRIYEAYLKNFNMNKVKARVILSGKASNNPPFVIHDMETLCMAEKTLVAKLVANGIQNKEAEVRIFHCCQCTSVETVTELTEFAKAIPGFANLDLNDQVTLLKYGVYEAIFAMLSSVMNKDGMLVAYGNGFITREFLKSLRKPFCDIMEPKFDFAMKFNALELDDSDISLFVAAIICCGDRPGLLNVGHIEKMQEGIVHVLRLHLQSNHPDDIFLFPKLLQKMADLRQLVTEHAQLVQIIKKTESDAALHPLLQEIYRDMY

This test has as its target Peroxisome proliferator-activated receptor alpha (Homo sapiens) (UniProt Q07869). Briefly: Agonist activity at human PPARalpha expressed in human MCF7 cells coexpressing TIF2 by luciferase reporter gene assay. In general terms: In a reporter assay the amount or activity of a reporter protein is the signal.
In turn, `CCCCCCCC/C=C\CCCCCCCCNC(=O)c1nn(-c2ccc(Cl)cc2Cl)c(-c2ccc(Cl)cc2)c1C` yielded a 50% effective concentration (EC50) of 467 nM.
Consider `CCCCCCCC/C=C\CCCCCCCCNC(=O)c1cc(-c2ccc(Cl)cc2)n(-c2ccc(Cl)cc2Cl)n1`, for which the concentration for a half-maximal effect (EC50) was determined as 223 nM.
Take `CCCCCCCC/C=C\CCCCCCCCNC(=O)c1cc(-c2ccc(Cl)cc2)n(-c2ccc(Cl)cc2)n1`: the response was half-maximal at 524 nM (EC50). Against the preceding compound, the EC50 is about 2.3-fold higher.
Regarding `CCCCCCCCCCCCCCCCNC(=O)c1nn(-c2ccc(Cl)cc2Cl)c(-c2ccc(Cl)cc2)c1C`, the EC50 is more than 10000 nM.
Compound `CCCCCCCCCCCCCCCCNC(=O)c1cc(-c2ccc(Cl)cc2)n(-c2ccc(Cl)cc2Cl)n1` came in with an EC50 of more than 10000 nM.
`CCCCCCCC/C=C\CCCCCCCCNC(=O)c1cc(-c2ccc(Cl)cc2)n(-c2ccccc2)n1`: the EC50 was determined as 183 nM.
`CCCCCCCCCCCCCCCCNC(=O)c1cc(-c2ccc(Cl)cc2)n(-c2ccccc2)n1`: the EC50 is more than 10000 nM.
As to `CCCCCCCCCCCCCCCCNC(=O)c1cc(-c2ccc(Cl)cc2)n(-c2ccc(Cl)cc2)n1`, the EC50 is more than 10000 nM.

As usually defined, the EC50 is the midpoint of the concentration-response curve. Read a high EC50 as a less potent agent.
